Test results as given in patent publication US12565522B2, “Micropeptide HMMW and application thereof” (NANJING ANJI BIOTECHNOLOGY CO., LTD., priority 2019, dated 2026).

Key:
Type in all cases: cell-based, human
[1] = system: A431 cells of skin cancer; assay: cells; settings: Homo sapiens, A-431, dose 10 μg/ml, 48 h, positive control, read-out: proliferation inhibition rate
Protocol: (§1) After SCC4 cells of head and neck cancer, SW579 cells of thyroid cancer, A549 cells of lung cancer, TE13 cells of esophageal squamous cell carcinoma, MGC803 cells of stomach cancer, MDA-MB-231 cells of breast cancer, UOK262 cells of kidney cancer and A431 cells of skin cancer of human were cultured in a 37 DEG C. 5% CO2 incubator until the density was 90%, they were digested and collected by trypsin, the cells were re-suspended in a culture solution and counted under a microscope, the concentration of the cells was adjusted to 3.0×10^4 cells/mL, and the cell suspension was inoculated to 96-well plates, 100 μL per well, and cultured in a 37 DEG C. 5% CO2 incubator overnight. After the cells were completely adherent, different doses of micropeptides HMMW I to IX were added as drug groups, taxol was used as a positive control group, and the culture solution without any drug was used as a blank control group. They were diluted with the culture solution till predetermined concentrations. The diluted solutions were added to 96-well plates, respectively, 100 μL per well, and incubated in a 37 DEG C. 5% CO2 incubator for 48 h. 20 μL of 5 mg/mL MTT was added to each well of the 96-well plates, and the culture was continued for 4 h. The culture medium was sucked away, and 100 μL of DMSO was added to each well for dissolution. Absorbance was detected by ELIASA at detection wavelength 570 nm and reference wavelength 630 nm, and proliferation inhibition (PI) was calculated according to Formula PI (%)=1−drug group/negative group. The test was independently repeated three times. The results obtained from the test were expressed with mean±SD and statistical t test was done. *P<0.05 means significant difference, and **P<0.01 means very significant difference.

[2] = system: A549 cells of lung cancer; assay: cells; settings: Homo sapiens, dose 10 μg/ml, 48 h, positive control, read-out: proliferation inhibition rate
Protocol: as §1

[3] = system: MDA-MB-231 cells of breast cancer; assay: cells; settings: Homo sapiens, dose 10 μg/ml, 48 h, positive control, read-out: proliferation inhibition rate
Protocol: as §1

[4] = system: MGC803 cells of stomach cancer; assay: cells; settings: Homo sapiens, MGC-803, dose 10 μg/ml, 48 h, positive control, read-out: proliferation inhibition rate
Protocol: as §1

[5] = system: SCC4 cells of head and neck cancer; assay: cells; settings: Homo sapiens, SCC-4, dose 10 μg/ml, 48 h, positive control, read-out: proliferation inhibition rate
Protocol: as §1

[6] = system: SW579 cells of thyroid cancer; assay: cells; settings: Homo sapiens, dose 10 μg/ml, 48 h, positive control, read-out: proliferation inhibition rate
Protocol: as §1

[7] = system: TE13 cells of esophageal squamous cell carcinoma; assay: cells; settings: Homo sapiens, dose 10 μg/ml, 48 h, positive control, read-out: proliferation inhibition rate
Protocol: as §1

[8] = system: UOK262 cells of kidney cancer; assay: cells; settings: Homo sapiens, UOK 262, dose 10 μg/ml, 48 h, positive control, read-out: proliferation inhibition rate
Protocol: as §1

[9] = system: A431 cells of skin cancer; assay: transwell migration test; settings: dose 10 (μM), 24 h
Protocol: (§2) Inoculate SCC4 cells of head and neck cancer, SW579 cells of thyroid cancer, A549 cells of lung cancer, TE13 cells of esophageal squamous cell carcinoma, MGC803 cells of stomach cancer, MDA-MB-231 cells of breast cancer, UOK262 cells of kidney cancer, and A431 cells of skin cancer of human to transwell cells, 100 μL per well, and meanwhile add micropeptides HMMW I to IX at different doses to every cell. Add 0.6 mL of complete medium containing 10% FBS to the transwell cells to stimulate cell migration, and culture in 5% CO2 at 37 DEG C. for 24 h. Discard the medium in the wells, fix with 90% alcohol at room temperature for 30 min, stain with 0.1% crystal violet at room temperature for 10 min, rinse with clear water, gently wipe off the non-migrated cells in the upper layer with a cotton swab, observe under a microscope and select four fields of view to take pictures and count. Calculate the migration inhibition rate (MIR) of the cells according to the following formula: […]
(§3) The test was repeated independently three times. Mean±SD was calculated based on the test results. Statistical t test was done. Here, “the test was repeated independently three times” means that every dose of any type of cells was tested repeatedly three times, and then the above formula was used to calculate the number of migrated cells (Mean±SD). Value P was used to express statistical difference. The statistical significance of the results is a method for estimating how true the results are (the totality can be represented), *P<0.05 means significant difference, and **P<0.01 means very significant difference.

[10] = system: A549 cells of lung cancer; assay: transwell migration test; settings: dose 10 (μM), 24 h
Protocol: as §2, §3

[11] = system: MDA-MB-231 cells of breast cancer; assay: transwell migration test; settings: dose 10 (μM), 24 h
Protocol: as §2, §3

[12] = system: MGC803 cells of stomach cancer; assay: transwell migration test; settings: 24 h
Protocol: as §2, §3

[13] = system: SCC4 cells of head and neck cancer; assay: transwell migration test; settings: dose 10 (μM), 24 h
Protocol: as §2, §3

[14] = system: SW579 cells of thyroid cancer; assay: transwell migration test; settings: dose 10 (μM), 24 h
Protocol: as §2, §3

[15] = system: TE13 cells of esophageal squamous cell carcinoma; assay: transwell migration test; settings: dose 10 (μM), 24 h
Protocol: as §2, §3

[16] = system: UOK262 cells of kidney cancer; assay: transwell migration test; settings: dose 10 (μM), 24 h
Protocol: as §2, §3

[17] = system: A431 cells of skin cancer; assay: Matrigel transwell invasion test; settings: dose 10 (unit not given), 24 h
Protocol: (§4) Dilute 10 mg/mL Matrigel with culture medium at 1:3, spread it on membranes of transwell cells and dry it in the air at room temperature. Use trypsin to digest and collect SCC4 cells of head and neck cancer, SW579 cells of thyroid cancer, A549 cells of lung cancer, TE13 cells of esophageal squamous cell carcinoma, MGC803 cells of stomach cancer, MDA-MB-231 cells of breast cancer, UOK262 cells of kidney cancer, and A431 cells of skin cancer of human, which were cultured to the logarithmic phase, wash with PBS twice and re-suspend with a blank culture medium. Adjust cell concentration to 1×10^5 cells/mL. Inoculate the cells to transwell cells, 100 μL per well, and meanwhile add micropeptides HMMW I to IX at different doses to every cell. Add 0.6 mL of complete medium containing 10% FBS to the transwell cells to stimulate cell invasion, and culture in 5% CO2 at 37 DEG C. for 24 h. Discard the medium in the wells, fix with 90% alcohol at room temperature for 30 min, stain with 0.1% crystal violet at room temperature for 10 min, rinse with clear water, gently wipe off the non-invaded cells in the upper layer with a cotton swab, observe under a microscope and select four fields of view to take pictures and count. Calculate the invasion inhibition rate (IIR) of the cells according to the following formula:
(§5) [formula] where Ntest is the number of invaded cells in the test groups (the groups at a dose of 1, 4 or 16 μM in the table), Ncontrol is the number of invaded cells in the blank control groups (the groups at a dose of 0 μM in the table). The test was repeated independently three times. Mean±SD was calculated based on the test results. Statistical t test was done. Value P was used to express statistical difference. The statistical significance of the results is a method for estimating how true the results are (the totality can be represented), *P<0.05 means significant difference, and **P<0.01 means very significant difference.

[18] = system: A549 cells of lung cancer; assay: Matrigel transwell invasion test; settings: dose 10 (unit not given), 24 h
Protocol: as §4, §5

[19] = system: MDA-MB-231 cells of breast cancer; assay: Matrigel transwell invasion test; settings: dose 10 (unit not given), 24 h
Protocol: as §4, §5

[20] = system: MGC803 cells of stomach cancer; assay: Matrigel transwell invasion test; settings: dose 10 (unit not given), 24 h
Protocol: as §4, §5

[21] = system: SCC4 cells of head and neck cancer; assay: Matrigel transwell invasion test; settings: dose 10 (unit not given), 24 h
Protocol: as §4, §5

[22] = system: SW579 cells of thyroid cancer; assay: Matrigel transwell invasion test; settings: dose 10 (unit not given), 24 h
Protocol: as §4, §5

[23] = system: TE13 cells of esophageal squamous cell carcinoma; assay: Matrigel transwell invasion test; settings: dose 10 (unit not given), 24 h
Protocol: as §4, §5

[24] = system: UOK262 cells of kidney cancer; assay: Matrigel transwell invasion test; settings: dose 10 (unit not given), 24 h
Protocol: as §4, §5

## CC(=O)O[C@H]1C(=O)[C@@]2(C)[C@H]([C@H](OC(=O)c3ccccc3)[C@]3(O)C[C@H](OC(=O)[C@H](O)[C@@H](NC(=O)c4ccccc4)c4ccccc4)C(C)=C1C3(C)C)[C@]1(OC(C)=O)CO[C@@H]1C[C@@H]2O [Taxol, taxol, reference compound]
[1]
  inhibition at 10 µg/mL: 85.2%
[2]
  inhibition at 10 µg/mL: 84.3%
[3]
  inhibition at 10 µg/mL: 83.9%
[4]
  inhibition at 10 µg/mL: 81.3%
[5]
  inhibition at 10 µg/mL: 87%
[6]
  inhibition at 10 µg/mL: 82.8%
[7]
  inhibition at 10 µg/mL: 79.2%
[8]
  inhibition at 10 µg/mL: 83.9%

## Avastin: comparison group in the migration and invasion tables; not described in the text [reference compound]
[9]
  migration inhibition rate: 64.63%
[10]
  migration inhibition rate: 66.21%
[11]
  migration inhibition rate: 62.19%
[12]
  migration inhibition rate: 71.25%
[13]
  migration inhibition rate: 68.64%
[14]
  migration inhibition rate: 59.81%
[15]
  migration inhibition rate: 58.19%
[16]
  migration inhibition rate: 61.39%
[17]
  invasion inhibition rate: 70.39%
[18]
  invasion inhibition rate: 61.35%
[19]
  invasion inhibition rate: 70.03%
[20]
  invasion inhibition rate: 63.48%
[21]
  invasion inhibition rate: 68.41%
[22]
  invasion inhibition rate: 67.40%
[23]
  invasion inhibition rate: 69.31%
[24]
  invasion inhibition rate: 72.16%
